Measurements from PubChem BioAssay AID248 (DTP/NCI, 2004).
Several values for one entry are separate records, joined by “and”; a condition that tells them apart may be missing. Equal entries are not always repeated. Inconclusive results and toxic doses are left out. Cut-off read from the data, not from the text of the source: active = T/C of 150% or more; inactive = T/C below 125%.

System: L1210 leukemia ip in BDF1 mice, survival T/C
Assay: NCI In Vivo Anticancer Drug Screen. Data for tumor model L1210 Leukemia (intraperitoneal) in B6D2F1 (BDF1) mice
Conditions: endpoint: mean survival time, higher = longer survival
Method in brief: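 Ratio derived from survival: compound-dosed mice over vehicle-dosed mice, all bearing a transplantable tumor.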

[1] = dose: 100.0 mg/kg/injection, schedule: Q04DX003 (ip), vehicle: saline
[2] = dose: 200.0 mg/kg/injection, schedule: Q04DX003 (ip), vehicle: saline
[3] = dose: 400.0 mg/kg/injection, schedule: Q04DX003 (ip), vehicle: saline
[4] = dose: 100.0 mg/kg/injection, schedule: Q01DX009 (ip), vehicle: saline
[5] = dose: 25.0 mg/kg/injection, schedule: Q04DX002 (ip), vehicle: Klucel (hydroxypropylcellulose) (HPC)
[6] = dose: 50.0 mg/kg/injection, schedule: Q04DX002 (ip), vehicle: Klucel (hydroxypropylcellulose) (HPC)
[7] = dose: 100.0 mg/kg/injection, schedule: Q04DX003 (ip), vehicle: Klucel (hydroxypropylcellulose) (HPC)
[8] = dose: 200.0 mg/kg/injection, schedule: Q04DX003 (ip), vehicle: Klucel (hydroxypropylcellulose) (HPC)
[9] = dose: 400.0 mg/kg/injection, schedule: Q04DX003 (ip), vehicle: Klucel (hydroxypropylcellulose) (HPC)
[10] = dose: 100.0 mg/kg/injection, schedule: Q01DX009 (ip), vehicle: Klucel (hydroxypropylcellulose) (HPC)
[11] = dose: 200.0 mg/kg/injection, schedule: Q01DX009 (ip), vehicle: Klucel (hydroxypropylcellulose) (HPC)
[12] = dose: 100.0 mg/kg/injection, schedule: Q01DX001 (ip), vehicle: carboxymethylcellulose (CMC)
[13] = dose: 200.0 mg/kg/injection, schedule: Q01DX001 (ip), vehicle: carboxymethylcellulose (CMC)
[14] = dose: 400.0 mg/kg/injection, schedule: Q01DX001 (ip), vehicle: carboxymethylcellulose (CMC)

Measured: T/C

O=C(O)/C=C/c1cc(O)c(O)c(O)c1
inactive: dose: 25.0 mg/kg/injection, schedule: Q01DX001 (ip), vehicle: other 100 % of control | dose: 50.0 mg/kg/injection, schedule: Q01DX001 (ip), vehicle: other 99 % of control | dose: 100.0 mg/kg/injection, schedule: Q01DX001 (ip), vehicle: other 94 % of control

COC(=O)CCC(C)C1CCC2C3C(OC(C)=O)CC4CC(O)CCC4(C)C3CC(O)C12C (stereo unspecified)
inactive: dose: 100.0 mg/kg/injection, schedule: Q01DX009 (ip), vehicle: carboxymethylcellulose (CMC) 93 % of control and 107 % of control | dose: 100.0 mg/kg/injection, schedule: Q04DX002 (ip), vehicle: carboxymethylcellulose (CMC) 93 % of control and 97 % of control | dose: 100.0 mg/kg/injection, schedule: Q04DX003 (ip), vehicle: carboxymethylcellulose (CMC) 104 % of control | dose: 200.0 mg/kg/injection, schedule: Q01DX009 (ip), vehicle: carboxymethylcellulose (CMC) 91 % of control and 92 % of control | dose: 200.0 mg/kg/injection, schedule: Q04DX002 (ip), vehicle: carboxymethylcellulose (CMC) 97 % of control and 98 % of control | dose: 200.0 mg/kg/injection, schedule: Q04DX003 (ip), vehicle: carboxymethylcellulose (CMC) 97 % of control | dose: 400.0 mg/kg/injection, schedule: Q01DX009 (ip), vehicle: carboxymethylcellulose (CMC) 94 % of control and 88 % of control | dose: 400.0 mg/kg/injection, schedule: Q04DX002 (ip), vehicle: carboxymethylcellulose (CMC) 97 % of control | dose: 400.0 mg/kg/injection, schedule: Q04DX003 (ip), vehicle: carboxymethylcellulose (CMC) 95 % of control

Cc1cc(C)[nH]c(=O)c1
inactive: dose: 100.0 mg/kg/injection, schedule: Q04DX003 (ip), vehicle: saline with Tween-80 109 % of control | dose: 200.0 mg/kg/injection, schedule: Q04DX003 (ip), vehicle: saline with Tween-80 102 % of control | dose: 400.0 mg/kg/injection, schedule: Q04DX003 (ip), vehicle: saline with Tween-80 98 % of control

CC[n+]1c(C)sc2cc(Cl)c(-c3ccccc3)cc21
inactive: [1] 98 % of control | [2] 101 % of control | [3] 95 % of control

OCCCC1CCCCN1 (stereo unspecified)
inactive: dose: 25.0 mg/kg/injection, schedule: Q01DX009 (ip), vehicle: saline 100 % of control | dose: 50.0 mg/kg/injection, schedule: Q01DX009 (ip), vehicle: saline 96 % of control | [4] 88 % of control | dose: 100.0 mg/kg/injection, schedule: Q04DX003 (ip), vehicle: acetone 103 % of control

CNC/C(Cl)=N/S(=O)(=O)c1ccc(C)cc1
inactive: dose: 12.5 mg/kg/injection, schedule: Q04DX002 (ip), vehicle: other 106 % of control | dose: 25.0 mg/kg/injection, schedule: Q04DX002 (ip), vehicle: other 98 % of control | dose: 50.0 mg/kg/injection, schedule: Q04DX002 (ip), vehicle: other 95 % of control | dose: 50.0 mg/kg/injection, schedule: Q04DX002 (ip), vehicle: saline with Tween-80 96 % of control | dose: 100.0 mg/kg/injection, schedule: Q04DX002 (ip), vehicle: saline with Tween-80 99 % of control | dose: 200.0 mg/kg/injection, schedule: Q04DX002 (ip), vehicle: saline with Tween-80 96 % of control | dose: 400.0 mg/kg/injection, schedule: Q04DX002 (ip), vehicle: saline with Tween-80 108 % of control

CC1CC(C)(C)NCCNC(C)CC(C)(C)NCCN1 (stereo unspecified)
inactive: dose: 12.5 mg/kg/injection, schedule: Q04DX002 (ip), vehicle: Klucel (hydroxypropylcellulose) (HPC) 97 % of control | [5] 94 % of control | [6] 94 % of control

CC(=O)c1ccc(OC(=O)Nc2cc([N+](=O)[O-])ccc2F)cc1
inactive: [7] 98 % of control | [8] 101 % of control | [9] 95 % of control

CCCC(NC(C)=O)C(=O)O (stereo unspecified)
inactive: dose: 100.0 mg/kg/injection, schedule: Q01DX001 (ip), vehicle: saline 94 % of control | [4] 94 % of control and 101 % of control | dose: 100.0 mg/kg/injection, schedule: Q04DX002 (ip), vehicle: saline 98 % of control and 111 % of control and 112 % of control | [1] 98 % of control | dose: 200.0 mg/kg/injection, schedule: Q01DX001 (ip), vehicle: saline 96 % of control | dose: 200.0 mg/kg/injection, schedule: Q01DX009 (ip), vehicle: saline 94 % of control and 90 % of control | dose: 200.0 mg/kg/injection, schedule: Q04DX002 (ip), vehicle: saline 108 % of control and 122 % of control and 123 % of control | [2] 96 % of control | dose: 400.0 mg/kg/injection, schedule: Q01DX001 (ip), vehicle: saline 93 % of control | dose: 400.0 mg/kg/injection, schedule: Q01DX009 (ip), vehicle: saline 99 % of control and 87 % of control | dose: 400.0 mg/kg/injection, schedule: Q04DX002 (ip), vehicle: saline 98 % of control and 111 % of control and 112 % of control | [3] 95 % of control

CCN(CC)CCCC(C)Nc1cc(N)nc2nc(-c3cc(OC)c(OC)c(OC)c3)cnc12 (stereo unspecified) (tested in a mixture with another compound)
inactive: dose: 75.0 mg/kg/injection, schedule: Q01DX001 (ip), vehicle: saline 87 % of control

CC(C)=CCC(=O)NCC(CCN1CCCCC1)(c1cccc2ccccc12)C(C)C (stereo unspecified)
inactive: dose: 12.5 mg/kg/injection, schedule: Q04DX003 (ip), vehicle: saline with Tween-80 96 % of control | dose: 25.0 mg/kg/injection, schedule: Q04DX003 (ip), vehicle: saline with Tween-80 88 % of control | dose: 50.0 mg/kg/injection, schedule: Q01DX003 (ip), vehicle: saline with Tween-80 88 % of control | dose: 50.0 mg/kg/injection, schedule: Q04DX003 (ip), vehicle: saline with Tween-80 92 % of control | [10] 90 % of control | [11] 90 % of control

Cc1[nH]c(=O)ncc1CCOCc1ccccc1
inactive: [12] 104 % of control | [13] 109 % of control | [14] 104 % of control

CC12CCCCC1C(C(C)(C)OC(=O)c1ccc([N+](=O)[O-])cc1)CC2 (stereo unspecified)
inactive: [5] 105 % of control | [6] 99 % of control | dose: 100.0 mg/kg/injection, schedule: Q04DX002 (ip), vehicle: Klucel (hydroxypropylcellulose) (HPC) 89 % of control

O=C(CC(C(=O)Nc1ccccc1)C(O)(c1ccccc1)c1ccccc1)Nc1ccccc1 (stereo unspecified)
inactive: [12] 95 % of control | [13] 91 % of control | [14] 95 % of control

Nc1cc(N)cc(Cc2ccccc2)c1
inactive: dose: 50.0 mg/kg/injection, schedule: Q01DX009 (ip), vehicle: Klucel (hydroxypropylcellulose) (HPC) 100 % of control | [10] 95 % of control | [7] 100 % of control | [11] 103 % of control | [8] 102 % of control | dose: 400.0 mg/kg/injection, schedule: Q01DX009 (ip), vehicle: Klucel (hydroxypropylcellulose) (HPC) 92 % of control | [9] 98 % of control

CCCNP(=O)(NCCC)OC1CC(C)(C)N(O)C(C)(C)C1
inactive: dose: 100.0 mg/kg/injection, schedule: Q04DX002 (ip), vehicle: water 90 % of control | dose: 200.0 mg/kg/injection, schedule: Q04DX002 (ip), vehicle: water 87 % of control | dose: 400.0 mg/kg/injection, schedule: Q04DX002 (ip), vehicle: water 97 % of control

COCc1ccc(C(=O)Nc2c(N)ncnc2N)cc1
inactive: dose: 100.0 mg/kg/injection, schedule: Q01DX001 (ip), vehicle: saline with Tween-80 100 % of control | dose: 200.0 mg/kg/injection, schedule: Q01DX001 (ip), vehicle: saline with Tween-80 102 % of control | dose: 400.0 mg/kg/injection, schedule: Q01DX001 (ip), vehicle: saline with Tween-80 95 % of control
